One experiment relates to KLH-specific IgG. Description: KLH-specific serum IgG (ELISA) after in vivo treatment of KLH-immunized mice. The arrangement: species or system C57BL/6 mice. The following applies: for Serum IgG Level, Day 14, Group Mean: KLH-immunized mice, KLH + Vehicle group 223879. As for the experimental part:
(§1) Experimental animals: Female C57BL/6 mice were purchased from Envigo (Livermore, Calif.) to provide 8- to 10-week-old animals at the time of immunization. IgG measurements were performed using Innovative Research KLH IgG ELISA kit. Germinal center staining was performed on Dako autostainer using procedures well known in the art.
(§2) On Day 0, animals of Groups 2-6 (n=10 each) were immunized by intraperitoneal (IP) injection with 0.2 mL (0.5 mg) per mouse of KLH, a dose determined to be optimal for IP administration without adjuvant. Mice from Group 1 (n=5) were sham-immunized by IP injection of 0.2 mL PBS per mouse.
(§3) Starting on Day 0 (immediately post-immunization) and continuing through Day 13 (i.e., 14 days total), animals in Group 1, 2, and 4-6 were injected IP once daily (QD) with vehicle, 30 mg/kg Compound 1, 10 mg/kg Compound 1, or 100 mg/kg Compound 2; animals in Group 3 were injected IP once weekly (QW) with 50 mg/kg CP. All doses were administered by IP injection at 5 mL/kg at approximately the same time (±1 h) each day.
(§4) On Day 14 (at approximately 24 hours after the final dose administration), all animals were subjected to terminal cardiocentesis and euthanized. Following clotting and processing, the resulting serum samples were flash-frozen and stored at −80° C. pending analysis by enzyme-linked immunosorbent assay (ELISA). The spleen was harvested from each mouse and split into two. One half of each spleen was collected for immunohistochemical (IHC) analysis of germinal center activity using peanut agglutinin (PNA) staining. Single-cell suspensions were collected from the other spleen halves and stored in DMSO cell-freezing medium. These samples were to be used for optional FACS analysis. Remaining tissues were discarded without further evaluation.
(§5) Statistical analysis: Descriptive and inferential analyses were performed using the corresponding functions of Excel 2010 (Microsoft, Redmond, Wash.). Inferential analysis consisted of t-test comparisons (two-tailed, non-paired, heteroscedasticity assumed) between groups as indicated. Values of p<0.05 were considered statistically significant.
Results:KLH-specific IgG Levels. ELISA (performed as experimental replicates) was used to determine the levels of immunoglobulin G (IgG) specific for KLH in the terminal serum samples.
In general terms: An ELISA detects its analyte on a solid surface through an enzyme-linked reagent.

The subject of experiment [1] is germinal centers of the spleen. Description: IHC with PNA staining of spleen as a measure of germinal center activity in KLH-immunized mice. It is filed as in vivo, C57BL/6 mice. As to conditions: spleen Day 14; for Staining Intensity, Group Mean: PNA IHC, KLH + Vehicle group 2.4; for % PNA-Positive Staining of Germinal Center, Group Mean: KLH + Vehicle group 42%. As for the experimental part:
as §1, §2, §3, §4, §5
Immunohistochemical (IHC) Staining with Peanut Agglutinin (PNA) as a Measure of Germinal Center Activity. IHC with PNA staining was used to determine the levels of positive staining in the germinal centers of the spleen.

Here are results for three molecules from patent publication US20210330672A1, “USE OF BCL6 INHIBITORS FOR TREATING AUTOIMMUNE DISEASES” (TEQLA THERAPEUTICS INC., priority 2018, published 2021).

SMILES strings stand for the structures.

For `CNC(=O)COc1cc2cc(Nc3nc(N4C[C@H](C)C[C@H](C)C4)ncc3Cl)ccc2n(C)c1=O` [Compound 1, 2-((6-((5-chloro-2-((3R,5S)-3,5-dimethylpiperidin-1-yl)pyrimidin-4-yl)amino)-1-methyl-2-oxo-1,2-dihydroquinolin-3-yl)oxy)-N-methylacetamide], the “Serum IgG Level, Day 14, Group Mean” value in the experiment with KLH-specific IgG (10 mpk IP once daily Days 0-13) turned out to be 100997 U/mL; in the experiment on KLH-specific IgG (30 mpk IP once daily Days 0-13) it was 103098 U/mL. Also, the “Staining Intensity, Group Mean” value is on record as 1.2 in experiment [1] (10 mpk IP once daily) and 1.5 in experiment [1] (30 mpk IP once daily). Besides, the “% PNA-Positive Staining of Germinal Center, Group Mean” value (“% PNA-Positive Staining” below) in experiment [1] (10 mpk IP once daily) and in experiment [1] (30 mpk IP once daily) was 12% each time.
As to `CNC(=O)COc1cc2cc(Nc3nc(N4CCC(C(=O)N(C)C)CC4)ncc3Cl)cc(OC)c2n(C)c1=O` [Compound 2, 1-(5-chloro-4-((8-methoxy-1-methyl-3-(2-(methylamino)-2-oxoethoxy)-2-oxo-1,2-dihydroquinolin-6-yl)amino)pyrimidin-2-yl)-N,N-dimethylpiperidine-4-carboxamide], the “attenuation of immune response to KLH (reduced IgG levels and germinal center activity)” value in the experiment with KLH-specific IgG (100 mg/kg, IP, once daily over 14 days) is “highly significant attenuation”. Further, the “attenuation of immune response to KLH” value in the experiment with KLH-specific IgG (10 or 30 mg/kg, IP, once daily over 14 days, no observable dose response) is given as “less significant attenuation”. Moreover, the “Serum IgG Level, Day 14, Group Mean” value in the experiment on KLH-specific IgG (100 mpk IP once daily Days 0-13) was determined as 41503 U/mL. In experiment [1] (100 mpk IP once daily), the “Staining Intensity, Group Mean” value was 1.1 and the “% PNA-Positive Staining” value amounted to 7%.
With `O=P1(N(CCCl)CCCl)NCCCO1` (stereo not drawn) [CP, cyclophosphamide, reference compound], the “attenuation of immune response to KLH (serum IgG and PNA staining of splenic germinal centers)” value in the experiment on KLH-specific IgG (50 mg/kg, IP, once weekly over 14 days) was “nominal but non-significant attenuation”. The “Serum IgG Level, Day 14, Group Mean” value with KLH-specific IgG (50 mpk IP once weekly over 14 days) turned out to be 161482 U/mL. Besides, in experiment [1] (50 mpk IP once weekly), the “Staining Intensity, Group Mean” value is 1.3 and the “% PNA-Positive Staining” value was 29%.
